Key:
HIPK1 (human) = HIPK1 (human) (UniProt Q86Z02); assay: SelectScreen, TR FRET
HIPK2 (human) = HIPK2 (human) (UniProt Q9H2X6); assay: SelectScreen, TR FRET
CAMK2A (human) = CAMK2A (human) (UniProt Q9UQM7); assay: KINOMEscan competition binding; details: compound 10.0 µM
CAMK2D (human) = CAMK2D (human) (UniProt Q13557); assay: KINOMEscan competition binding; details: compound 10.0 µM
CAMK2G (human) = CAMK2G (human) (UniProt Q13555); assay: KINOMEscan competition binding; details: compound 10.0 µM
Sequence of CAMK2G (human) (Q13555 whole entry, looked up): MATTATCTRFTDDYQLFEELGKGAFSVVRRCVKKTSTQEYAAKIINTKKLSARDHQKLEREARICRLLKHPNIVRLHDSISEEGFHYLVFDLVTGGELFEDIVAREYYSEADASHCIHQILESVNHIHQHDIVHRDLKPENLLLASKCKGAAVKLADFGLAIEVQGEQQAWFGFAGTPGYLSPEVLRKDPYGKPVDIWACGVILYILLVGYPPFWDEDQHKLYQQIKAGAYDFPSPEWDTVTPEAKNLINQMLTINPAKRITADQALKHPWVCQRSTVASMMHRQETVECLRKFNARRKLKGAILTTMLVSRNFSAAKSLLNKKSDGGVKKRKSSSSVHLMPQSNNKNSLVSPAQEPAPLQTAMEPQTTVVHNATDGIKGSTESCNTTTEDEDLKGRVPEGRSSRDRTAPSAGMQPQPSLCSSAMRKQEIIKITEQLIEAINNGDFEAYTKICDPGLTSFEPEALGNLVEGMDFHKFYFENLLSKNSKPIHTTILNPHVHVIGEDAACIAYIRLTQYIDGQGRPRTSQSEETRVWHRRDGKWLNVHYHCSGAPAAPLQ

DCLK1 (human) = DCLK1 (human) (UniProt O15075); assay: KINOMEscan competition binding; details: compound 10.0 µM
DCLK2 (human) = DCLK2 (human) (UniProt Q8N568); assay: KINOMEscan competition binding; details: compound 10.0 µM
PTK2B (human) = PTK2B (human) (UniProt Q14289); assay: KINOMEscan competition binding; details: compound 10.0 µM
STK33 (human) = STK33 (human) (UniProt Q9BYT3); assay: KINOMEscan competition binding; details: compound 10.0 µM
PIM1 (human) = PIM1 (human) (UniProt P11309); assay: SelectScreen, TR FRET
Sequence of PIM1 (human) (P11309 whole entry, looked up): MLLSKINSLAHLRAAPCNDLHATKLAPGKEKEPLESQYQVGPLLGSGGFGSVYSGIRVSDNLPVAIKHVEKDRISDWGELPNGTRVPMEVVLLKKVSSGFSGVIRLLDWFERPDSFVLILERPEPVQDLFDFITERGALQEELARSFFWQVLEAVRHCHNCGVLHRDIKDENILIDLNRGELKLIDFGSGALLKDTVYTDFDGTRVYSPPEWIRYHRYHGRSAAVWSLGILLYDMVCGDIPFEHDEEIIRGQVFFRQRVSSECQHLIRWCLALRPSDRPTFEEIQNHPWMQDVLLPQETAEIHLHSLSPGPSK

PIM2 (human) = PIM2 (human) (UniProt Q9P1W9); assay: SelectScreen, TR FRET
MAP2K3 (human) = MAP2K3 (human) (UniProt P46734); assay: KINOMEscan competition binding; details: compound 10.0 µM
Sequence of MAP2K3 (human) (P46734 whole entry, looked up): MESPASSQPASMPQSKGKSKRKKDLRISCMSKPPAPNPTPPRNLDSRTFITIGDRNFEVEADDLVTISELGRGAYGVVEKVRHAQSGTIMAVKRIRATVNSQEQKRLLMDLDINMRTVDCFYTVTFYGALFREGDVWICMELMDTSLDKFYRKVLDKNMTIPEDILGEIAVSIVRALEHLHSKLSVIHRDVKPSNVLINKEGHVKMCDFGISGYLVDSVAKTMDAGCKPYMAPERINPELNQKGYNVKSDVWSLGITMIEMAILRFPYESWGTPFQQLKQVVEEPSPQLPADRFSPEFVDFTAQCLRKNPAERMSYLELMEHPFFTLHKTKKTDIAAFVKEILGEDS

MAP2K4 (human) = MAP2K4 (human) (UniProt P45985); assay: KINOMEscan competition binding; details: compound 10.0 µM
Sequence of MAP2K4 (human) (P45985 whole entry, looked up): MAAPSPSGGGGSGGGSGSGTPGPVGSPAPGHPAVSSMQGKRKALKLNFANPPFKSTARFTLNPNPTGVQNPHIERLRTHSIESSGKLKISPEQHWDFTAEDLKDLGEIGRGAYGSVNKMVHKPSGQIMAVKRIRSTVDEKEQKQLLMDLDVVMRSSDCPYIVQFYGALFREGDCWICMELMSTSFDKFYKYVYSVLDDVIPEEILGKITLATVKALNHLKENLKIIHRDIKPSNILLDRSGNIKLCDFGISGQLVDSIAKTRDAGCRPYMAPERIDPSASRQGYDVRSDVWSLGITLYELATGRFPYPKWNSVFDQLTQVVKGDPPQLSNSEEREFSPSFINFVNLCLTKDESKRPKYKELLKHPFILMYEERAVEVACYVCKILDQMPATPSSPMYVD

Sequence of HIPK2 (human) (Q9H2X6 whole entry, looked up): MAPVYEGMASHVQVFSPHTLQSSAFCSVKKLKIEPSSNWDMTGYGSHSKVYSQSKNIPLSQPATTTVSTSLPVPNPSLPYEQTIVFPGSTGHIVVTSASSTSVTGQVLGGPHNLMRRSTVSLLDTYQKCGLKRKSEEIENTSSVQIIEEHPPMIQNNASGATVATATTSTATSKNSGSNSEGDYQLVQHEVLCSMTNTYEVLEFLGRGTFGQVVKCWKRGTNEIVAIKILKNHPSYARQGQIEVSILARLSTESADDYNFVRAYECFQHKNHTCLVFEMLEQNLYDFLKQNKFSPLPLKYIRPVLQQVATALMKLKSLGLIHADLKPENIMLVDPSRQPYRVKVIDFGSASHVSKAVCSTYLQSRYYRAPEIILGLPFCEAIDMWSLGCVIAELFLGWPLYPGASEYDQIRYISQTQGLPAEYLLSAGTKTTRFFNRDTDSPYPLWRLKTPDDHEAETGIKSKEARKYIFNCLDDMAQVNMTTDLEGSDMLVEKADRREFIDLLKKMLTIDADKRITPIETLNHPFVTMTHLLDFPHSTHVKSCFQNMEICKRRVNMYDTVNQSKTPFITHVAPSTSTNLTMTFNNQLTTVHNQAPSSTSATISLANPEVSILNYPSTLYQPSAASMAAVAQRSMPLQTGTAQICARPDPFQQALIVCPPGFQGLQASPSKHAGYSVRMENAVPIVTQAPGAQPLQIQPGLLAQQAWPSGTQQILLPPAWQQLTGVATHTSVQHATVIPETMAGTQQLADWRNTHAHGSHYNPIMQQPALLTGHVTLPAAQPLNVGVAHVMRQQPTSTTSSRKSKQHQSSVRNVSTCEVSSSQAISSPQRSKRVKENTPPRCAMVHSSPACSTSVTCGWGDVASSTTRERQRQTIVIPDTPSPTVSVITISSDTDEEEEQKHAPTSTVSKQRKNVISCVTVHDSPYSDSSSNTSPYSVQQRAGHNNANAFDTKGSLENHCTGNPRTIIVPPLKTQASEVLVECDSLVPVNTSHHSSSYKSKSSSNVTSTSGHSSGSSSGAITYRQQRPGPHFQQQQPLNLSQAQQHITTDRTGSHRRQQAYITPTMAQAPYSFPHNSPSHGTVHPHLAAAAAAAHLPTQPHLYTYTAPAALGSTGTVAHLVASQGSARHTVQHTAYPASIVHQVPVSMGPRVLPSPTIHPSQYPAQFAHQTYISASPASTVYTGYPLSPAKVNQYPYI
Sequence of HIPK1 (human) (Q86Z02 whole entry, looked up): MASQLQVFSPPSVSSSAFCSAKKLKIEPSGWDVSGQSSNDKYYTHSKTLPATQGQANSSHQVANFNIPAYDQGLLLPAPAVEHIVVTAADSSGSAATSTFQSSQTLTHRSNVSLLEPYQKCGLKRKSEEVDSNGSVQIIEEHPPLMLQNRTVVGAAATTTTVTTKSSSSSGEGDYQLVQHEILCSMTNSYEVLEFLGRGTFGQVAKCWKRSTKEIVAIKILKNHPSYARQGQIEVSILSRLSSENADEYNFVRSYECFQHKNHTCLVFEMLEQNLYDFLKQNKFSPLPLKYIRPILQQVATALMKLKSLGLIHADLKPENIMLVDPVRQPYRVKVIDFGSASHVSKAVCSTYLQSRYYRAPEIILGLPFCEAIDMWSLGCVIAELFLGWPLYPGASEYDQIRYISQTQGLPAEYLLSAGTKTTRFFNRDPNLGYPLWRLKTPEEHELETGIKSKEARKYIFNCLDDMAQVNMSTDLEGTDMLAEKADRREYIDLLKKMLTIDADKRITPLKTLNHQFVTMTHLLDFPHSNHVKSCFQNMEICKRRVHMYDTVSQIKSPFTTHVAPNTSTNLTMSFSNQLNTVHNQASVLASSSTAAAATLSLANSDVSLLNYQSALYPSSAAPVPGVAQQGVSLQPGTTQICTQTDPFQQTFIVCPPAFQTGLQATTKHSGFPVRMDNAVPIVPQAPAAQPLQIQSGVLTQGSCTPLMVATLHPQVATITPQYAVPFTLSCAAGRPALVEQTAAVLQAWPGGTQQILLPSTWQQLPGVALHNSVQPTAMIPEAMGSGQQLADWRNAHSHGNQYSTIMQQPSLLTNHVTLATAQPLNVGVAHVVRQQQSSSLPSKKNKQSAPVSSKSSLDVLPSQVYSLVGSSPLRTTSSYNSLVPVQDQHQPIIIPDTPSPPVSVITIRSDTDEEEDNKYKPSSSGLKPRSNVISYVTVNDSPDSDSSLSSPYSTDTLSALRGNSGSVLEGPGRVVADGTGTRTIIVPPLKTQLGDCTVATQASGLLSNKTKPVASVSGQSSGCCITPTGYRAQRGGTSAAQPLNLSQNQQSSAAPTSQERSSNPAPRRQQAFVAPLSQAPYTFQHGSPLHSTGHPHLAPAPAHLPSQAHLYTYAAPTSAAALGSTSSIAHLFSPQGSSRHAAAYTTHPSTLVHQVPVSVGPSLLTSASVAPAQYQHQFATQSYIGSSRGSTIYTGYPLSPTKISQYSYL
Sequence of CAMK2A (human) (Q9UQM7 whole entry, looked up): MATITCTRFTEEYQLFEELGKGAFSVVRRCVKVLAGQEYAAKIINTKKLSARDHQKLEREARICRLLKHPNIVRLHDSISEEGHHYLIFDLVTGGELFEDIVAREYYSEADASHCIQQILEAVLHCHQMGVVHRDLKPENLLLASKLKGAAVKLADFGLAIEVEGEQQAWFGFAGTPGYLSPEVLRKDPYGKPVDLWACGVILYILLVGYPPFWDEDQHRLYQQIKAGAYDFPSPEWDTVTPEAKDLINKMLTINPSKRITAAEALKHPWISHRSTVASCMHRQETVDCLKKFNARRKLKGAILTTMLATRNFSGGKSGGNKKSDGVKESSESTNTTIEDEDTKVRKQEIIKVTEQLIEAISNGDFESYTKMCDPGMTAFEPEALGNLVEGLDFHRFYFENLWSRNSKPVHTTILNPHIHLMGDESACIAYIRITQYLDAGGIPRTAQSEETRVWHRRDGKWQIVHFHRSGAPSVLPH
Sequence of CAMK2D (human) (Q13557 whole entry, looked up): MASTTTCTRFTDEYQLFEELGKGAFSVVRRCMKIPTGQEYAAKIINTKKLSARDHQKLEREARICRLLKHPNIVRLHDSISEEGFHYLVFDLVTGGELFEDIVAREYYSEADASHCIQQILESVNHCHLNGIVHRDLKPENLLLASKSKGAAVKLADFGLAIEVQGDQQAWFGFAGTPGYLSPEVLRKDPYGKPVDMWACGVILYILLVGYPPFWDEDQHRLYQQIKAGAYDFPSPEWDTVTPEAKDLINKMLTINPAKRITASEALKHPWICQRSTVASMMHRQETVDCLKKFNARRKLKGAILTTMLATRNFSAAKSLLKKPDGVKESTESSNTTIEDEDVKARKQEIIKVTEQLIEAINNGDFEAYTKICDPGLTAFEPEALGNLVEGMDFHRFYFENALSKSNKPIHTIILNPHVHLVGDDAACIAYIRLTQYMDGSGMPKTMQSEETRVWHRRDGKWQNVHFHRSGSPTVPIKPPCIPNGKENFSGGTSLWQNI

N=C1NC(=O)/C(=C/c2c[nH]c(=O)c(-c3cccc(N)c3)c2)S1
IC50 (HIPK1 (human)): 317 nM | IC50 (HIPK2 (human)): 163 nM

Nc1cccc(-c2cc(/C=C3\NC(=O)NC3=O)c[nH]c2=O)c1
IC50 (HIPK1 (human)): > 10000 nM | IC50 (HIPK2 (human)): > 10000 nM

O=C1NC(=O)/C(=C/c2c[nH]c(=O)c(-c3cnc4ccccc4c3)c2)S1
IC50 (HIPK1 (human)): 228 nM | IC50 (HIPK2 (human)): 178 nM

CCN1C(=O)CC(C(C)C)N(C2CCCC2)c2nc(Nc3ccc(C(=O)NC4CCN(C)CC4)cc3OC)ncc21 (centres undefined)
kinase still bound, per cent of control (CAMK2A (human)): 9.3% | kinase still bound, per cent of control (CAMK2D (human)): 23% | kinase still bound, per cent of control (CAMK2G (human)): 16% | kinase still bound, per cent of control (DCLK1 (human)): 0.9% | kinase still bound, per cent of control (DCLK2 (human)): 1.6% | kinase still bound, per cent of control (PTK2B (human)): 34% | kinase still bound, per cent of control (STK33 (human)): 31%

CS(=O)(=O)Nc1ccc(-c2cc(/C=C3\SC(=O)NC3=O)c[nH]c2=O)cc1
IC50 (HIPK1 (human)): 527 nM | IC50 (HIPK2 (human)): 258 nM | IC50 (PIM1 (human)): 151 nM | IC50 (PIM2 (human)): 214 nM

O=C1NC(=O)C(=Cc2ccc(-c3ccc(Cl)cc3)o2)C(=O)N1
kinase still bound, per cent of control (MAP2K3 (human)): 15% | kinase still bound, per cent of control (MAP2K4 (human)): 14%
